Calls of active or inactive are those of the source.
Key:
[1] = biological target: Induced myeloid leukemia cell differentiation protein Mcl-1 (Homo sapiens, UniProt Q07820); type: functional
[2] = biological target: T1, Mannose-6-phosphate isomerase (Homo sapiens, UniProt P34949); assay: MPI inhibition at elevated mannose 6-phosphate – biochemical, fluorescence intensity, high mannose 6-phosphate, primary screen (AID 1220)
T1 sequence (P34949 whole entry): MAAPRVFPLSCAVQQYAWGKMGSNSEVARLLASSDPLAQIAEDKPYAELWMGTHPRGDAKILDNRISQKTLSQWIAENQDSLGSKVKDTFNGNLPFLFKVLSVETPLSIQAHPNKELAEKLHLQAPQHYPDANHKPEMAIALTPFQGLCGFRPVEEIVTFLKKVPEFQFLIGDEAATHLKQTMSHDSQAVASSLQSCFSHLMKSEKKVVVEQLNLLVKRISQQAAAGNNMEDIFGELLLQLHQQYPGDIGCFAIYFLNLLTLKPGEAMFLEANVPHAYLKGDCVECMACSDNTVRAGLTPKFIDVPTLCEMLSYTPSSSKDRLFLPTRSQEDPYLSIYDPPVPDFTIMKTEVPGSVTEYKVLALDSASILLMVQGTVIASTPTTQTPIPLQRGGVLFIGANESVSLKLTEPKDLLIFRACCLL

Hexokinase HKDC1 = biological target: T2, Hexokinase HKDC1 (Homo sapiens, UniProt Q2TB90); assay: inhibition of HKDC1 glucose phosphorylation – biochemical, W721R variant, dose response (AID 504729); type: functional
T2 sequence (Q2TB90 whole entry): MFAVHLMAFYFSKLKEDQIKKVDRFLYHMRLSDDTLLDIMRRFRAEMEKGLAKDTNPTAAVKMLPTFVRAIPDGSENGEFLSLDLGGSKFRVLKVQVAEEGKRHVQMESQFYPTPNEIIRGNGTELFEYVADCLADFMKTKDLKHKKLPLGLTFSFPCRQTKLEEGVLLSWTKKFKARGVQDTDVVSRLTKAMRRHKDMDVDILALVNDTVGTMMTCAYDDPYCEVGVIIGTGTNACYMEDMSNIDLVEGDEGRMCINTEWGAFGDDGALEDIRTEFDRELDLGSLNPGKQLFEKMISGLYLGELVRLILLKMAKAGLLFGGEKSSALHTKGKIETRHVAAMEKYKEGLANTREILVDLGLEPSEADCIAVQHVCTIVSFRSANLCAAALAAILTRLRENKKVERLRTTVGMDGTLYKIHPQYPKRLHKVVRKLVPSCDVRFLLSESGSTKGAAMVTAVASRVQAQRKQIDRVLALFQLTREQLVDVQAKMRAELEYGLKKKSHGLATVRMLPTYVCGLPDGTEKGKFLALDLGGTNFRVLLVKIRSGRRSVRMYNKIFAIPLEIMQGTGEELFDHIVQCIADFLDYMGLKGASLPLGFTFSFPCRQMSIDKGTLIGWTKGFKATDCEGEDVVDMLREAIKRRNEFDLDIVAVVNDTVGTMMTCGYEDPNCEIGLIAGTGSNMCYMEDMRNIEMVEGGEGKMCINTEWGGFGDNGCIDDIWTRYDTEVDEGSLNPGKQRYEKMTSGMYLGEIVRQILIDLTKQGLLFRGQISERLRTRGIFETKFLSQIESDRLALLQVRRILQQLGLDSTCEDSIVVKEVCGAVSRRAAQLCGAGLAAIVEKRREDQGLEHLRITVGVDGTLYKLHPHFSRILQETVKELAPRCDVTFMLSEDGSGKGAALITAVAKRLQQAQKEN

[3] = biological target: T3, 1-phosphatidylinositol 4,5-bisphosphate phosphodiesterase gamma-1 (Homo sapiens, UniProt P19174); assay: Counterscreen for inhibitors of phospholipase C isozymes (PLC-B3): Fluorescence-based biochemical high throughput dose response assay to identify inhibitors of phospholipase C isozymes (PLC-gamma1).
T3 sequence (P19174 whole entry): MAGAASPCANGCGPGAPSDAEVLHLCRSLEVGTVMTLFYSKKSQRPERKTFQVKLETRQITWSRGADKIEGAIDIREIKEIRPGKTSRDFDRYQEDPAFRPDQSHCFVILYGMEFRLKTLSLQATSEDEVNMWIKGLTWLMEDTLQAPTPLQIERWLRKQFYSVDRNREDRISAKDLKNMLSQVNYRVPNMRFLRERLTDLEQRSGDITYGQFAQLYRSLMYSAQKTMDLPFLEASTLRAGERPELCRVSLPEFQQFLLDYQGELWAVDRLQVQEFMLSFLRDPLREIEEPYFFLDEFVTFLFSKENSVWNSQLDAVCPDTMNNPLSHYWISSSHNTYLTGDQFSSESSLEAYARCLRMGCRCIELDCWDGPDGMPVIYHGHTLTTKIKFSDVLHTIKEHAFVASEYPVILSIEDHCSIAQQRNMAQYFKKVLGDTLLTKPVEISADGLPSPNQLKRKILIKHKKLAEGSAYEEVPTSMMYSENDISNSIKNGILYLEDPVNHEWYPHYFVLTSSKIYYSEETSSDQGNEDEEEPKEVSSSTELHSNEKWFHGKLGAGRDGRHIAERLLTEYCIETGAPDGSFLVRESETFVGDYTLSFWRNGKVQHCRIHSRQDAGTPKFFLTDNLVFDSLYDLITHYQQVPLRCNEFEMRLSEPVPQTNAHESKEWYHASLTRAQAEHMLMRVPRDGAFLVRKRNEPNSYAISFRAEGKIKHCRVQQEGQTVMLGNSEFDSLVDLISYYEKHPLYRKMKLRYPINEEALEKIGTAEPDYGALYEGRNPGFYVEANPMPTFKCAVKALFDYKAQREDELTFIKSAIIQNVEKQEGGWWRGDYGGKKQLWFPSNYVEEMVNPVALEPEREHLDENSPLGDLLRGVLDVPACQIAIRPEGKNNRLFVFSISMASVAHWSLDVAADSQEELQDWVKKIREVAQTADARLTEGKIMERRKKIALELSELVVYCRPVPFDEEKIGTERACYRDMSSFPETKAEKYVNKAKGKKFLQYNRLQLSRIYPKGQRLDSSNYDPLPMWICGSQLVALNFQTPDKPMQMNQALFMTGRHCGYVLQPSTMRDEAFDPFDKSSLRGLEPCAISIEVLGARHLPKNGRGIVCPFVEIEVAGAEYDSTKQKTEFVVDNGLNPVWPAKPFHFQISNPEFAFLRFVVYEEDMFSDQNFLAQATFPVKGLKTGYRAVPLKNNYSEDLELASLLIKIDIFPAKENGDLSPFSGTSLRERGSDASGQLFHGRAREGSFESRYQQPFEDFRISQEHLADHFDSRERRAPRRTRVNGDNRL

Induced myeloid leukemia cell differentiation protein Mcl-1, sequence (Q07820 whole entry): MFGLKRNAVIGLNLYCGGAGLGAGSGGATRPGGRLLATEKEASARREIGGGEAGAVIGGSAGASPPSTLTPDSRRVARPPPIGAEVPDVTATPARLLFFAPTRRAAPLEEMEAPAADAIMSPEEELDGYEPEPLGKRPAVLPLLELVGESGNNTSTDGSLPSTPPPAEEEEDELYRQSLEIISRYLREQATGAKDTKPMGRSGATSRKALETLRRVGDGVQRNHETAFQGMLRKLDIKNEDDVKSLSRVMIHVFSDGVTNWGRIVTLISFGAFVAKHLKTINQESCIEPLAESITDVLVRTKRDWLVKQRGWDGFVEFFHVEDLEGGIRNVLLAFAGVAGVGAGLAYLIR

## O=C(O)c1cc(N2N=C(C(F)(F)F)/C(=C/C=C/c3ccco3)C2=O)ccc1Cl
[1]
  IC50: 4.69 µM (active)
[2]
  IC50: > 50 µM (not active)
Hexokinase HKDC1
  IC50: 5.66 µM (active)

## Cc1cc(C)c(S(=O)(=O)Nc2cc(SCC(=O)O)c(O)c3ccccc23)cc1C
[1]
  IC50: 10.5 µM (active)
Hexokinase HKDC1
  IC50: 4.72 µM (active)

## CNCc1ccccc1Sc1ccc(O)c(O)c1
[2]
  IC50: 25.9 µM (active)

## O=C(/C=C/c1ccco1)NC(=S)Nc1cccc(C(=O)O)c1
[3]
  IC50: > 122 µM (inactive)

Reference: ChEMBL document CHEMBL1201862, “PubChem BioAssay data set” (2004)
